Experimental data published in patent US5461142A, “Phosphorylated derivatives of cardiodilatin/ANF peptides” (Pharma Bissendorf Peptide GmbH, priority 1987, dated 1995).
Entries after “also recorded” stand apart in the source; their conditions may differ. No end group written: not given here.

Test system: rabbit aorta muscle strips
Assay: Bioactivity test: relaxation of norepinephrine-precontracted rabbit aorta muscle strips in organ bath
Type: cell-based, New Zealand rabbits
Settings: for relaxation activity: Example 6, tested as in Example 5, corresponding concentrations
Procedure: Muscle strips of rabbit aorta were first contracted by the action of a solution of norepinephrine (10^-7 M). After constant conditions had been adjusted, the peptides were added (position of the arrow).
The muscle relaxation continues only after a further addition of unphosphorylated alpha-nANaP.
Aortae of New Zealand rabbits were prepared. The muscular tension was measured with a muscle strip in an organ bath containing physiological saline. The strips were pre-contracted with a solution of 10^-6 M of norepinephrin, then at fill relaxation. For the assay, a further contraction was induced with 10^-7 M of norepinephrin. After constant contraction conditions had been reached, the peptides were applied.
Alpha-hANaP was phosphorylated according to EXAMPLE 1 in the presence of ATP and the catalytic subunit according to EXAMPLE 1. For control, unphosphorylated alpha-hANaP was incubated under the same conditions, however in the absence of ATP. […] Stepwise addition of unphosphorylated, phosphorylated and in turn unphosphorylated alpha-hANaP allows clearly to recognize that only unphosphorylated alpha-hANaP exerts a significant relaxing effect in comparison to phosphorylated peptide. If the addition is reversed, first phosphorylated, then unphosphorylated and again phosphorylated alpha-hANaP, the corresponding reversed relaxation effect is found.
CDD-32 (Urodilatin) is phosphorylated according to Example 1 and investigated for its biological activity in the same manner as in Example 5.

| Substance | effect onto the smooth vascular musculature (relaxation) (FIG. 5, strips contracted with norepinephrine 10^-7 M, peptide final concentration 0.3 to 0.6×10^-9 M) | muscle relaxation of precontracted rabbit aorta strips (FIG. 7 / Example 5, final concentration 0.3×10^-9 M, stepwise addition, listed as phosphorylated alpha-hANaP) | relaxation activity | relative relaxation capability (FIG. 8, phosphorylated versus unphosphorylated form at corresponding concentration) |
| --- | --- | --- | --- | --- |
| phosphorylated CDD-28: alpha-hANaP (positions 99-126 of gamma-hANaP) phosphorylated with c-AMP-dependent proteinkinase; formula I with R = H, X = phosphate (SLRRSSCFGGRMDRIGAQSGLGCNSFRY; ends and bridges not checked; also: phosphorylated (phosphate), site not given here; UniProt P01160 124-151, looked up) | only a slight relaxation | an effect next to nothing; also recorded: negligible effect |  |  |
| phosphorylated CDD-32: CDD-32 (urodilatin, amino acids 95-126 of gamma-hANaP) phosphorylated according to Example 1 (TAPRSLRRSSCFGGRMDRIGAQSGLGCNSFRY; ends and bridges not checked; also: phosphorylated (phosphate), site not given here; UniProt P01160 120-151, looked up) |  |  | distinctly reduced relaxation | significantly lower relaxation capability than that of the unphosphorylated form |
| Urodilatin [reference compound] |  |  | dose-dependant relaxation activity |  |
